According to publication PMC9402538, “Rational design of a sensitivity-enhanced tracer for discovering efficient APC–Asef inhibitors” (Nature Communications, 2022):
Where “and” joins values, the source holds several entries; their conditions need not be identical. Equal values may be shown once. Entries after “also recorded” stand apart in the source; their conditions may differ. Where a SMILES comes first, the peptide text is derived from it. The star is where a group is joined. Benzoyl(4-OMe) = COc1ccc(C(=O)*)cc1

Experiments:
SW480 cells = assay: xCELLigence RTCA-DP migration assay, SW480; format: cell-based; details: for Cell index: 50 μM
Experimental: Real-time cell migration was evaluated using the xCELLigence RTCA-DP system (Roche). Briefly, SW480 cells were serum-starved for 8 h, digested, and resuspended in serum-free medium. The wells in the upper chamber of CIM plate 16 were preequilibrated with 30 μL serum-free medium for 1 h and filled with 100 μL of 4 × 10^4 serum-starved SW480 cells per well. The wells in the lower chamber of CIM plate 16 were filled with complete medium. […] Cell index values were detected every 15 min throughout the procedure, and the data were collected and analyzed with RTCA software (version 2.3).

APC (303–739) = molecular target: T1, APC (303–739) (Homo sapiens, UniProt P25054); assay: FP competitive assay using tracer 7; format: binding; details: individual repeats, Fig3b, read-out: %inhibition
T1 sequence (P25054 303-739): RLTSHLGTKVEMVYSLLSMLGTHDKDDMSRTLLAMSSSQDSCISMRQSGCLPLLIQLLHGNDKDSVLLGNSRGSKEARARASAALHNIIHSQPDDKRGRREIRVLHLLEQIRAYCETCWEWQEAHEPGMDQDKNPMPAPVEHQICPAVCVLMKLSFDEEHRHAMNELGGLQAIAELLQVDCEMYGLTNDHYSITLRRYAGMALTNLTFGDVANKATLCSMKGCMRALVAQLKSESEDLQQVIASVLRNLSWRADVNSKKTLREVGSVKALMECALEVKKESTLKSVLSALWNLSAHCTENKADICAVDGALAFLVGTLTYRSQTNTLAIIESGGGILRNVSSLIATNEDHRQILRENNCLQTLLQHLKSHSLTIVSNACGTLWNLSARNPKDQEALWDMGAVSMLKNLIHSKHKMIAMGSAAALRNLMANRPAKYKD
Procedure, shortened: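 Peptide dilutions were first incubated 1 h at room temperature with APC (303–739) in HEPES pH 7.5 buffer containing 300 mM NaCl, EDTA and DTT. Added FITC tracer 7 (400 nM stock) displaced over a further 1.5 h before polarization reading. IC50 values came from nonlinear regression fits of triplicate data.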

Which results are given for `COc1ccc(C(=O)N[C@@H](C)C(=O)NCC(=O)N[C@@H](CCC(=O)O)C(=O)N[C@@H](CO)C(=O)N[C@@H](CC(C)C)C(=O)N[C@@H](Cc2ccc(O)cc2)C(=O)N[C@@H](CCC(=O)O)C(N)=O)cc1` [MAI-516] ({Benzoyl(4-OMe)}-AGESLYE-NH2)?
Cell index (SW480 cells; Time 2.86 h): 0.0858 and 0.0963 and 0.0628 and 0.0638; Cell index (SW480 cells; Time 3.11 h): 0.0938 and 0.1001 and 0.0718 and 0.0644; Cell index (SW480 cells; Time 25.38 h): 0.4156 and 0.4495 and 0.4015 and 0.3302; Cell index (SW480 cells; Time 25.63 h): 0.4241 and 0.453 and 0.4081 and 0.333; Cell index (SW480 cells; Time 25.88 h): 0.4262 and 0.4606 and 0.4096 and 0.3376; Cell index (SW480 cells; Time 26.13 h): 0.4312 and 0.4671 and 0.4174 and 0.3414; Cell index (SW480 cells; Time 26.38 h): 0.4401 and 0.4711 and 0.4224 and 0.35; Cell index (SW480 cells; Time 26.63 h): 0.4427 and 0.4808 and 0.4256 and 0.3526; Cell index (SW480 cells; Time 26.88 h): 0.4494 and 0.4864 and 0.4295 and 0.3559; Cell index (SW480 cells; Time 27.13 h): 0.4537 and 0.4902 and 0.438 and 0.3614; Cell index (SW480 cells; Time 27.38 h): 0.4561 and 0.4966 and 0.4408 and 0.3637; Cell index (SW480 cells; Time 27.63 h): 0.459 and 0.5021 and 0.4433 and 0.3665; Cell index (SW480 cells; Time 27.88 h): 0.4663 and 0.508 and 0.4508 and 0.3739; Cell index (SW480 cells; Time 28.13 h): 0.4709 and 0.5146 and 0.4572 and 0.3773; Cell index (SW480 cells; Time 28.38 h): 0.4763 and 0.5221 and 0.4622 and 0.3808; Cell index (SW480 cells; Time 28.63 h): 0.4818 and 0.5253 and 0.4661 and 0.3892; Cell index (SW480 cells; Time 28.88 h): 0.484 and 0.5373 and 0.4696 and 0.3897; Cell index (SW480 cells; Time 29.13 h): 0.4908 and 0.5435 and 0.4752 and 0.3937; Cell index (SW480 cells; Time 29.38 h): 0.4994 and 0.5497 and 0.4817 and 0.3996; Cell index (SW480 cells; Time 29.63 h): 0.5038 and 0.5558 and 0.4857 and 0.4052; Cell index (SW480 cells; Time 29.88 h): 0.5108 and 0.5614 and 0.4912 and 0.4104; Cell index (SW480 cells; Time 30.13 h): 0.5142 and 0.5705 and 0.496 and 0.4144; Cell index (SW480 cells; Time 30.38 h): 0.5237 and 0.5775 and 0.5022 and 0.4227; Cell index (SW480 cells; Time 30.63 h): 0.5252 and 0.5853 and 0.505 and 0.4265; Cell index (SW480 cells; Time 30.88 h): 0.5376 and 0.5896 and 0.5138 and 0.4332; cell migration (RTCA) (SW480 cells; SW480, MAI-516): dose not inhibit the migration; also recorded: no apparent impact; inhibition at 0.0002 µM (APC (303–739); Conc. 0.0002 μM): 0.5%; inhibition at 0.0005 µM (APC (303–739); Conc. 0.0005 μM): -0.4%; inhibition at 0.001 µM (APC (303–739); Conc. 0.001 μM): 0.3%; inhibition at 0.002 µM (APC (303–739); Conc. 0.002 μM): 0.4%; inhibition at 0.0024 µM (APC (303–739); Conc. 0.0024 μM): 2.8%; inhibition at 0.0039 µM (APC (303–739); Conc. 0.0039 μM): 3.1%; inhibition at 0.0049 µM (APC (303–739); Conc. 0.0049 μM): 6.1%; inhibition at 0.006 µM (APC (303–739); Conc. 0.006 μM): 3.8%; inhibition at 0.0078 µM (APC (303–739); Conc. 0.0078 μM): 6.6%; inhibition at 0.0098 µM (APC (303–739); Conc. 0.0098 μM): 13.7%; inhibition at 0.012 µM (APC (303–739); Conc. 0.012 μM): 8.8%; inhibition at 0.0156 µM (APC (303–739); Conc. 0.0156 μM): 19.4%; inhibition at 0.0195 µM (APC (303–739); Conc. 0.0195 μM): 28.4%; inhibition at 0.024 µM (APC (303–739); Conc. 0.024 μM): 22.1%; inhibition at 0.0313 µM (APC (303–739); Conc. 0.0313 μM): 44%; inhibition at 0.0391 µM (APC (303–739); Conc. 0.0391 μM): 48.7%; inhibition at 0.049 µM (APC (303–739); Conc. 0.049 μM): 44.6%; inhibition at 0.0625 µM (APC (303–739); Conc. 0.0625 μM): 65.8%; inhibition at 0.0781 µM (APC (303–739); Conc. 0.0781 μM): 67.8%; inhibition at 0.098 µM (APC (303–739); Conc. 0.098 μM): 67.3%; inhibition at 0.125 µM (APC (303–739); Conc. 0.125 μM): 80.6%; inhibition at 0.1563 µM (APC (303–739); Conc. 0.1563 μM): 82%; inhibition at 0.195 µM (APC (303–739); Conc. 0.195 μM): 81.2%; inhibition at 0.25 µM (APC (303–739); Conc. 0.25 μM): 89.6%; inhibition at 0.3125 µM (APC (303–739); Conc. 0.3125 μM): 90.7%; inhibition at 0.391 µM (APC (303–739); Conc. 0.391 μM): 89.5%; inhibition at 0.5 µM (APC (303–739); Conc. 0.5 μM): 95.1%; inhibition at 0.625 µM (APC (303–739); Conc. 0.625 μM): 96%; inhibition at 0.781 µM (APC (303–739); Conc. 0.781 μM): 94.6%; inhibition at 1 µM (APC (303–739); Conc. 1 μM): 98.2%; inhibition at 1.25 µM (APC (303–739); Conc. 1.25 μM): 98.2%
